Reference: ChEMBL document CHEMBL5512619, “Anticancer mechanism of coumarin-based derivatives” (Eur J Med Chem, 2024)
In brackets after ≈: the same amount, converted by molar mass. Values belong to the compound of their own block, whether it stands above or below them.

Experiments:
A-427 = test: Cytotoxicity against human A-427 cells assessed as inhibition of cell growth; assay type: functional, cell-based
RT-4 = test: Cytotoxicity against human RT-4 cells assessed as inhibition of cell growth; assay type: functional, cell-based
LCLC-103H cell line = test: Cytotoxicity against human LCLC-103H cell line assessed as inhibition of cell growth; assay type: functional, cell-based
HepG2 = test: Antiproliferative activity against human HepG2 cells measured after 72 hrs by SRB method; assay type: functional, cell-based; conditions: HepG2, 72 h
Caco-2 [1] = test: Antiproliferative activity against human Caco-2 cells measured after 72 hrs in presence of paclitaxel by SRB method; assay type: functional, cell-based; conditions: Caco-2, 72 h
HCT-116 [2] = test: Antiproliferative activity against human HCT-116 cells measured after 72 hrs in presence of paclitaxel by SRB method; assay type: functional, cell-based; conditions: HCT-116, 72 h
HeLa = test: Antiproliferative activity against human HeLa cells measured after 72 hrs by SRB method; assay type: functional, cell-based
HCT-116 [3] = test: cells; conditions: Homo sapiens, HCT-116, 72 h
Description: Antiproliferative activity against human HCT-116 cells measured after 72 hrs by SRB method

MCF7 [4] = test: Antiproliferative activity against human MCF7 cells measured after 72 hrs by SRB method; assay type: functional, cell-based; conditions: MCF7, 72 h
[5] = Cytotoxicity against human BEAS-2B cells assessed as inhibition of cell growth by MTT assay; assay type: toxicity, cell-based
A549 = test: Cytotoxicity against human A549 cells assessed as inhibition of cell growth by MTT assay; assay type: functional, cell-based
MCF7 [6] = test: Cytotoxicity against human MCF7 cells assessed as inhibition of cell growth by MTT assay; assay type: functional, cell-based
[7] = molecular target: Bromodomain-containing protein 4 (Homo sapiens, UniProt O60885); test: Inhibition of BRD4 (unknown origin)
MDA-MB-231 = test: Inhibition of cell invasion in human MDA-MB-231 cells at 100 uM measured after 24 hrs by crystal violet staining based microscopy analysis relative to control; assay type: functional
Caco-2 [8] = test: Antiproliferative activity against human Caco-2 cells measured after 72 hrs by SRB method; conditions: Caco-2, 72 h
T98G = test: Induction of apoptosis in human T98G cells relative to control; assay type: functional
KB = test: Antiproliferative activity against human KB cells measured after 48 hrs by MTT assay; assay type: functional, cell-based

SMILES: CCN(CC)c1ccc2cc(-c3nc4ccccc4o3)c(=N)oc2c1
IC50 (A-427): < 10 nM
IC50 (RT-4): < 10 nM
IC50 (LCLC-103H cell line): < 10 nM

IC50 (HepG2): 740 nM
IC50 (Caco-2 [1]): 130 nM
IC50 (HCT-116 [2]): 5.1 nM
IC50 (HeLa): 740 nM
IC50 (HCT-116 [3]): 740 nM
IC50 (MCF7 [4]): 740 nM
SMILES: COc1cc(C)c2oc(=O)c(C)c3c2c1[C@@H](C)CO3

SMILES: C/C(=N\Cc1ccc(O)cc1)c1c(O)c2ccccc2oc1=O
IC50 [5]: 4.08 µg/mL (≈ 13.2 µM)
IC50 (A549): 6.09 µg/mL (≈ 19.7 µM)
IC50 (MCF7 [6]): 1.41 µg/mL (≈ 4.56 µM)

IC50 [7]: 99 nM
SMILES: CCS(=O)(=O)Nc1ccc(Oc2ccccc2OC)c(-c2ccc3oc(=O)cc(OC)c3c2)c1

SMILES: COc1ccc2ccc(=O)oc2c1CC=C(C)C [OSTHOLE]
inhibition at 100 µM (MDA-MB-231): 97.6%

IC50 (HCT-116 [3]): 27.9 nM
IC50 (Caco-2 [8]): 2100 nM
SMILES: CC(=O)O[C@H]1C(=O)[C@@]2(C)[C@H]([C@H](OC(=O)c3ccccc3)[C@]3(O)C[C@H](OC(=O)[C@H](O)[C@@H](NC(=O)c4ccccc4)c4ccccc4)C(C)=C1C3(C)C)[C@]1(OC(C)=O)CO[C@@H]1C[C@@H]2O [PACLITAXEL]

IC50 (KB): 200000 nM
SMILES: O=c1ccc2ccc(O)cc2o1 [UMBELLIFERONE]
Activity (T98G): 15%
